Measurements reported in patent US9521850B2 (University of Florida Research Foundation, Incorporated, priority 2012, dated 2016).
Values after ≈ are worked out from the molar mass of the structure shown.

How the values were obtained:
SecA of Ca. L. asiaticus = SecA of Ca. L. asiaticus (Candidatus Liberibacter asiaticus, UniProt A0ABM5NFG5); experiment: biochemical
A. tumefaciens = experiment: microbe, parasite or virus in culture; type: cell-based; settings: Agrobacterium tumefaciens, 24 h
Liberibacter crescens = experiment: microbe, parasite or virus in culture; type: cell-based
Rhizobium etli = experiment: microbe, parasite or virus in culture; type: cell-based
Bradyrhizobium japonicum = experiment: microbe, parasite or virus in culture; type: cell-based
Xanthomonas citri = experiment: microbe, parasite or virus in culture; type: cell-based, Xanthomonas citri subsp. citri
Mesorhizobium loti = experiment: microbe, parasite or virus in culture; type: cell-based
Sinorhizobium meliloti = experiment: microbe, parasite or virus in culture; type: cell-based
[1] = system: Agrobacterium tumefaciens; experiment: microbe, parasite or virus in culture; type: cell-based
CLAS = CLAS transmission rate using graft-based approach (Example 3); type: in vivo; settings: budwood treated at 500 μg/ml, grafted onto Valencia trees
Experimental: HLB-infected budwoods were collected in HLB infected grove in teaching block at CREC. The presence of CLAS titers in budwood was confirmed by qPCR.
C16 and streptomycin were applied at the rate of 500 μg/ml; water-treated budwood was used as check. The budwoods were placed in a glass bottle containing either treatment or water as check. The glass bottles were kept in a ventilation hood with light on to increase the evaporation rate, therefore, promoting the uptake of antibiotics. Leaf and bark samples were collected from each budwood and 100 mg were accurately weighed and used for DNA extraction with Promega genomic DNA extraction kit. CLAS populations in each sample were determined using standard qPCR protocol. Each DNA sample was run in triplicate wells.
After overnight treatment, the antibiotic-treated budwood was grafted onto 2-3 years old Valencia trees. A total of 15 trees were grafted for each treatment. […] Four leaves from the main stem of Valencia trees were sampled for DNA extraction and determination of CLAS populations.

SMILES	MBC (A. tumefaciens)	MBC (Liberibacter crescens; 24 h)	MIC (Liberibacter crescens; 24 h)	MBC (Liberibacter crescens; 120 h)	MIC (Liberibacter crescens; 120 h)	MBC (Rhizobium etli; 24 hrs)	MIC (Rhizobium etli; 24 hrs)	MBC (Rhizobium etli; 120 hrs)	MIC (Rhizobium etli; 120 hrs)	MBC (Bradyrhizobium japonicum; 24 hrs)	MIC (Bradyrhizobium japonicum; 24 hrs)	MBC (Bradyrhizobium japonicum; 120 hrs)	MIC (Bradyrhizobium japonicum; 120 hrs)	MBC (Xanthomonas citri)	MIC (Xanthomonas citri)	MBC (Mesorhizobium loti)	MIC (Mesorhizobium loti)	MBC (Sinorhizobium meliloti)	MIC (Sinorhizobium meliloti)	MBC [1]	also measured
COc1cc(-c2cc(-c3ccccc3)nc3sc(C(=O)O)c(N)c23)cc(OC)c1OC [Compound C17, 3-amino-6-phenyl-4-(3,4,5-trimethoxy-phenyl)thieno [2,3-b]pyridine-2-carboxylic acid]	256 µg/mL (≈ 586 µM)	16 µg/mL (≈ 36.7 µM)	16 µg/mL (≈ 36.7 µM)	32 µg/mL (≈ 73.3 µM)	32 µg/mL (≈ 73.3 µM)	64 µg/mL (≈ 147 µM)	32 µg/mL (≈ 73.3 µM)	64 µg/mL (≈ 147 µM)	32 µg/mL (≈ 73.3 µM)	32 µg/mL (≈ 73.3 µM)	16 µg/mL (≈ 36.7 µM)	64 µg/mL (≈ 147 µM)	32 µg/mL (≈ 73.3 µM)	32 µg/mL (≈ 73.3 µM)	16 µg/mL (≈ 36.7 µM)	32 µg/mL (≈ 73.3 µM)	16 µg/mL (≈ 36.7 µM)	32 µg/mL (≈ 73.3 µM)	16 µg/mL (≈ 36.7 µM)	64 µg/mL (≈ 147 µM)	IC50 (SecA of Ca. L. asiaticus): 920 nM; MIC [1]: 64 µg/mL (≈ 147 µM)
O=C1CCCC2=C1C(c1cccs1)Nc1ccc(C(=O)c3ccccc3)cc1N2 (centres unmarked) [Compound C20, 7-benzoyl-11-(2-thienyl)-2,3,4,5,10,11-hexahydro-1H-diabenzo[b,e] [1,4]diazepin-1-one]	256 µg/mL (≈ 639 µM)	16 µg/mL (≈ 39.9 µM)	16 µg/mL (≈ 39.9 µM)	32 µg/mL (≈ 79.9 µM)	32 µg/mL (≈ 79.9 µM)	64 µg/mL (≈ 160 µM)	32 µg/mL (≈ 79.9 µM)	64 µg/mL (≈ 160 µM)	32 µg/mL (≈ 79.9 µM)	32 µg/mL (≈ 79.9 µM)	16 µg/mL (≈ 39.9 µM)	64 µg/mL (≈ 160 µM)	16 µg/mL (≈ 39.9 µM)	32 µg/mL (≈ 79.9 µM)	16 µg/mL (≈ 39.9 µM)	16 µg/mL (≈ 39.9 µM)	8 µg/mL (≈ 20 µM)	16 µg/mL (≈ 39.9 µM)	16 µg/mL (≈ 39.9 µM)	128 µg/mL (≈ 320 µM)	IC50 (SecA of Ca. L. asiaticus): 440 nM; MIC [1]: 32 µg/mL (≈ 79.9 µM)
COc1ccc2nc(NC(=O)CSc3nc4cc(C)ccc4[nH]3)sc2c1 [Compound C19, N-(6-methoxy-1,3-benzo-thiazol-2-yl)-2-[(5-methyl-1H-benz-imidazol-2-yl)thio]acetamide]	128 µg/mL (≈ 333 µM)	8 µg/mL (≈ 20.8 µM)	8 µg/mL (≈ 20.8 µM)	16 µg/mL (≈ 41.6 µM)	16 µg/mL (≈ 41.6 µM)	32 µg/mL (≈ 83.2 µM)	32 µg/mL (≈ 83.2 µM)	64 µg/mL (≈ 166 µM)	32 µg/mL (≈ 83.2 µM)	32 µg/mL (≈ 83.2 µM)	32 µg/mL (≈ 83.2 µM)	64 µg/mL (≈ 166 µM)	64 µg/mL (≈ 166 µM)	64 µg/mL (≈ 166 µM)	32 µg/mL (≈ 83.2 µM)	32 µg/mL (≈ 83.2 µM)	16 µg/mL (≈ 41.6 µM)	64 µg/mL (≈ 166 µM)	32 µg/mL (≈ 83.2 µM)	128 µg/mL (≈ 333 µM)	IC50 (SecA of Ca. L. asiaticus): 640 nM; MIC [1]: 32 µg/mL (≈ 83.2 µM)
[H]/N=C(/N)N[C@H]1[C@H](O)[C@@H](O)[C@H](O[C@@H]2O[C@@H](C)[C@](O)(C=O)[C@H]2O[C@@H]2O[C@@H](CO)[C@H](O)[C@@H](O)[C@@H]2NC)[C@@H](N/C(N)=N\[H])[C@@H]1O [Streptomycin, reference compound]	64 µg/mL (≈ 110 µM)	16 µg/mL (≈ 27.5 µM)	16 µg/mL (≈ 27.5 µM)	32 µg/mL (≈ 55 µM)	32 µg/mL (≈ 55 µM)	4 µg/mL (≈ 6.88 µM)	4 µg/mL (≈ 6.88 µM)	16 µg/mL (≈ 27.5 µM)	16 µg/mL (≈ 27.5 µM)	32 µg/mL (≈ 55 µM)	32 µg/mL (≈ 55 µM)	32 µg/mL (≈ 55 µM)	32 µg/mL (≈ 55 µM)	32 µg/mL (≈ 55 µM)	32 µg/mL (≈ 55 µM)	32 µg/mL (≈ 55 µM)	16 µg/mL (≈ 27.5 µM)	128 µg/mL (≈ 220 µM)	64 µg/mL (≈ 110 µM)	128 µg/mL (≈ 220 µM)	CLAS transmission rate (% trees tested positive for CLAS) (CLAS; 3 months after grafting): 13.3%; CLAS transmission rate (% trees tested positive for CLAS) (CLAS; 6 months after grafting): 66.7%; MIC [1]: 64 µg/mL (≈ 110 µM)
